The results in this text go back to patent publication US9738655B2, “Tetrahydroisoquinolines containing substituted azoles as factor XIa inhibitors” (BRISTOL-MYERS SQUIBB COMPANY, priority 2013, dated 2017).

Structures are written as SMILES. Counter-ions that a name gives are not always drawn. Like-named read-outs stand apart in the source and are kept apart here.

The target in test [1] is purified human plasma kallikrein (Homo sapiens (Human), UniProt P03952). The test can be described thus: Plasma kallikrein enzyme inhibition assay (chromogenic substrate S-2302). Type of test: biochemical.
Test [2] has as its target purified human Factor XIa (Homo sapiens (Human), UniProt P03951). The test can be described thus: Factor XIa enzyme inhibition assay (chromogenic substrate S-2366).
[3] abbreviates: measured at 25° C. (no asterisk).
[4] abbreviates: read-out: Factor XIa Ki, measured at 25° C.
The mark [5] stands for this setting: measured at 25° C. (no asterisk), TFA salt.
Where [6] appears, read: read-out: Factor XIa Ki, measured at 25° C., TFA salt.

purified human plasma kallikrein, sequence (P03952 391-638): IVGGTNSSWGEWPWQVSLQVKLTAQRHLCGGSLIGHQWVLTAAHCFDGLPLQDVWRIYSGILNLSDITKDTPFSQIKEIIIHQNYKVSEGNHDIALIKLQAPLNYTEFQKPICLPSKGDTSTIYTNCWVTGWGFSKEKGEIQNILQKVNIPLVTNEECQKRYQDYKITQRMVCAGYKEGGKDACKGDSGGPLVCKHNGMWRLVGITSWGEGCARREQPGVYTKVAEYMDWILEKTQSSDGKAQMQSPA
purified human plasma kallikrein, sequence (P03952 20-390 partner): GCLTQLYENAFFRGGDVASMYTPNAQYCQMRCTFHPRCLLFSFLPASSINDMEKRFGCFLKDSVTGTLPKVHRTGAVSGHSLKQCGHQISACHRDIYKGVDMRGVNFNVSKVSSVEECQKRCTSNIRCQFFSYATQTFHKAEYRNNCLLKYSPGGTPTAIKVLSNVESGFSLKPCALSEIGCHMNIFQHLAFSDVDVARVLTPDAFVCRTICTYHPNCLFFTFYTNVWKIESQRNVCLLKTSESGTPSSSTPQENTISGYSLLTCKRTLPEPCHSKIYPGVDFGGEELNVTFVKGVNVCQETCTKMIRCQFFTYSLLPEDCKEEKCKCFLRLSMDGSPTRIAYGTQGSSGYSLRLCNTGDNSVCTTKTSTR
purified human Factor XIa, sequence (P03951 388-625): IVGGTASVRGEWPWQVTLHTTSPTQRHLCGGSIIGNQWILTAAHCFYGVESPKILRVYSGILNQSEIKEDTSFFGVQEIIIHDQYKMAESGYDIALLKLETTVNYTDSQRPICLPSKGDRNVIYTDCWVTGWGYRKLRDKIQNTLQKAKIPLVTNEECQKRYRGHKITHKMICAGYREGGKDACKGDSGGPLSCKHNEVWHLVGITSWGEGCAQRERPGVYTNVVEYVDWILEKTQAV
purified human Factor XIa, sequence (P03951 19-387 partner): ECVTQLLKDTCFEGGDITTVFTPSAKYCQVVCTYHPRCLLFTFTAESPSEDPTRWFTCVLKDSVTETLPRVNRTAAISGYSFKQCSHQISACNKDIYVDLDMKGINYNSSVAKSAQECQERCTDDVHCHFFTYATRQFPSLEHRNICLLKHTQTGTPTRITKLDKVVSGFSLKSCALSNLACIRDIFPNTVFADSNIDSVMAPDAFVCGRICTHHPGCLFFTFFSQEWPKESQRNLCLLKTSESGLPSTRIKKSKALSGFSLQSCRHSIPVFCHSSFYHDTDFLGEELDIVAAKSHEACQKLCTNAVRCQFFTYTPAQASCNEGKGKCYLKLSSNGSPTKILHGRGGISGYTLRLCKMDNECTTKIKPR

On to `CN1CCN(c2cccc3c2CCN(C(=O)c2cnn(-c4cccc(Cl)c4F)c2N)C3C(=O)Nc2ccc(C(=O)O)cc2)CC1=O` (centres unmarked) [Example 318, 4-(2-(5-Amino-1-(3-chloro-2-fluorophenyl)-1H-pyrazole-4-carbonyl)-5-(4-methyl-3-oxopiperazin-1-yl)-1,2,3,4-tetrahydroisoquinoline-1-carboxamido)benzoic acid, TFA salt], for which the Ki (in general, the dissociation constant of the complex between target and ligand, obtained from inhibition or displacement) is 21.1 nM in test [1] (setting [3]) and below 5 nM in test [2] (setting [4]).

Regarding `COC1CCN(c2cccc3c2CCN(C(=O)C2(C)CC(c4cccc(Cl)c4F)=NO2)C3C(=O)Nc2ccc(C(=O)O)cc2)CC1` (centres unmarked) [Example 266, 4-(2-(3-(3-chloro-2-fluorophenyl)-5-methyl-4,5-dihydroisoxazole-5-carbonyl)-5-(4-methoxypiperidin-1-yl)-1,2,3,4-tetrahydroisoquinoline-1-carboxamido)benzoic acid, TFA salt], the Ki is 687 nM in test [1] (setting [5]) and 420 nM in test [2] (setting [6]).

Regarding `Nc1ncc(-c2cccc3c2CCN(C(=O)c2cn(-c4cccc(Cl)c4F)nn2)C3C(=O)Nc2ccc(C(=O)O)cc2)cn1` (centres unmarked) [Example 30, 4-(5-(2-aminopyrimidin-5-yl)-2-(1-(3-chloro-2-fluorophenyl)-1H-1,2,3-triazole-4-carbonyl)-1,2,3,4-tetrahydroisoquinoline-1-carboxamido)benzoic acid, TFA salt], the Ki in test [1] (setting [3]) is 15.7 nM; in test [2] (setting [4]), below 5 nM.

On to `CN(C)C(=O)C1CCN(c2cccc3c2CCN(C(=O)c2cnn(-c4cccc(Cl)c4F)c2)C3C(=O)Nc2ccc(C(=O)O)cc2)CC1` (centres unmarked) [Example 59, 4-(2-(1-(3-chloro-2-fluorophenyl)-1H-pyrazole-4-carbonyl)-5-(4-(dimethylcarbamoyl)piperidin-1-yl)-1,2,3,4-tetrahydroisoquinoline-1-carboxamido)benzoic acid, TFA salt], for which the Ki in test [1] (setting [3]) was 10.1 nM; in test [2] (setting [4]) it was below 5 nM.

Regarding `O=C(O)c1ccc(NC(=O)[C@@H]2c3cccc(N4CCOCC4)c3CCN2C(=O)c2cnn(-c3cccc(Cl)c3F)c2)cc1` [Example 89, (S)-4-(2-(1-(3-Chloro-2-fluorophenyl)-1H-pyrazole-4-carbonyl)-5-morpholino-1,2,3,4-tetrahydroisoquinoline-1-carboxamido)benzoic acid, TFA salt], the results for the Ki in test [1] (setting [3]) and in test [2] (setting [4]) were 11.4 nM and below 5 nM, respectively.

In the case of `CNC(=O)c1ccc(-c2cccc3c2CCN(C(=O)c2cn(-c4cccc(Cl)c4F)nn2)[C@@H]3C(=O)Nc2ccc(C(=O)O)cc2)cn1` [Example 44, (S)-4-(2-(1-(3-Chloro-2-fluorophenyl)-1H-1,2,3-triazole-4-carbonyl)-5-(6-(methylcarbamoyl)pyridin-3-yl)-1,2,3,4-tetrahydroisoquinoline-1-carboxamido)benzoic acid, TFA salt], the Ki in test [1] (setting [3]) is 3.28 nM; in test [2] (setting [4]) it was below 5 nM.

With `COC1CCN(c2cccc3c2CCN(C(=O)C2CCN(c4cccc(Cl)c4F)C2)C3C(=O)Nc2ccc(C(=O)O)cc2)CC1` (centres unmarked) [Example 308, 4-(2-(1-(3-Chloro-2-fluorophenyl)pyrrolidine-3-carbonyl)-5-(4-methoxypiperidin-1-yl)-1,2,3,4-tetrahydroisoquinoline-1-carboxamido)benzoic acid, TFA salt], the Ki worked out at 79.7 nM in test [1] (setting [5]) and 6.03 nM in test [2] (setting [6]).

Consider `COC1CCN(c2cccc3c2CCN(C(=O)c2ccnc(-c4cccc(Cl)c4F)c2)C3C(=O)Nc2ccc(C(=O)O)cc2)CC1` (centres unmarked) [Example 324, 4-(2-(2-(3-Chloro-2-fluorophenyl)isonicotinoyl)-5-(4-methoxypiperidin-1-yl)-1,2,3,4-tetrahydroisoquinoline-1-carboxamido)benzoic acid, 2 TFA salt], for which the values for the Ki in test [1] (setting [3]) and in test [2] (setting [4]) were 958 nM and 37.1 nM, respectively.

Consider `COC1CCN(c2cccc3c2CCN(C(=O)c2cccc(-c4cccc(Cl)c4F)n2)C3C(=O)Nc2ccc(C(=O)O)cc2)CC1` (centres unmarked) [Example 325, 4-(2-(6-(3-Chloro-2-fluorophenyl)picolinoyl)-5-(4-methoxypiperidin-1-yl)-1,2,3,4-tetrahydroisoquinoline-1-carboxamido)benzoic acid, 2 TFA salt], for which the Ki is above 6000 nM in test [1] (measured at 37° C. (*)) and 2400 nM in test [2] (setting [4]).

As to `CN(C)C1CCN(c2cccc3c2CCN(C(=O)c2cn(-c4cccc(Cl)c4F)cn2)[C@H]3C(=O)Nc2ccc(C(=O)O)cc2)CC1` (single isomer, unassigned) [Example 54, bis-TFA salt], the Ki in test [1] (setting [3]) is 50.4 nM; in test [2] (setting [4]), 8.83 nM.

On to `COC1CCN(c2cccc3c2CCN(C(=O)c2cnn(-c4cccc(Cl)c4)c2)C3C(=O)Nc2ccc(C(=O)O)cc2)CC1` (centres unmarked) [Example 329, 4-(2-(1-(3-chlorophenyl)-1H-pyrazole-4-carbonyl)-5-(4-methoxypiperidin-1-yl)-1,2,3,4-tetrahydroisoquinoline-1-carboxamido)benzoic acid, TFA salt], for which the values for the Ki in test [1] (setting [3]) and in test [2] (setting [4]) were 229 nM and 26.6 nM, respectively.

Consider `COC1CCN(c2cccc3c2CCN(C(=O)c2cc(-c4cccc(Cl)c4F)ccn2)C3C(=O)Nc2ccc(C(=O)O)cc2)CC1` (centres unmarked) [Example 322, 4-(2-(4-(3-Chloro-2-fluorophenyl)picolinoyl)-5-(4-methoxypiperidin-1-yl)-1,2,3,4-tetrahydroisoquinoline-1-carboxamido)benzoic acid, 2 TFA salt], for which the Ki is 138 nM in test [1] (setting [3]) and 8.21 nM in test [2] (setting [4]).

On to `CN(C)C1CCN(c2cccc3c2CCN(C(=O)c2cn(-c4cccc(Cl)c4F)nn2)C3C(=O)Nc2ccc(-c3cn[nH]c3)cc2)CC1` (centres unmarked) [Example 102, N-(4-(1H-Pyrazol-4-yl)phenyl)-2-(1-(3-chloro-2-fluorophenyl)-1H-1,2,3-triazole-4-carbonyl)-5-(4-(dimethylamino)piperidin-1-yl)-1,2,3,4-tetrahydroisoquinoline-1-carboxamide, bis-TFA salt], for which the Ki was 1.39 nM in test [1] (setting [3]) and below 5 nM in test [2] (setting [4]).

As for `CCOC(=O)c1ccc(NC(=O)C2c3cccc(N4CCC(N5CCCC5)CC4)c3CCN2C(=O)c2cn(-c3cccc(Cl)c3F)nn2)cc1` (centres unmarked) [Example 219, Ethyl 4-(2-(1-(3-chloro-2-fluorophenyl)-1H-1,2,3-triazole-4-carbonyl)-5-(4-(pyrrolidin-1-yl)piperidin-1-yl)-1,2,3,4-tetrahydroisoquinoline-1-carboxamido)benzoate, 2 TFA salt], the Ki in test [1] (setting [3]) is 1.96 nM; in test [2] (setting [4]), below 5 nM.

With `CN1CCC(NC(=O)c2cccc3c2CCN(C(=O)c2cn(-c4cccc(Cl)c4F)nn2)C3C(=O)Nc2ccc(C(=O)O)cc2)CC1` (centres unmarked) [Example 192, 4-(2-(1-(3-Chloro-2-fluorophenyl)-1H-1,2,3-triazole-4-carbonyl)-5-((1-methylpiperidin-4-yl)carbamoyl)-1,2,3,4-tetrahydroisoquinoline-1-carboxamido)benzoic acid, TFA salt], the results for the Ki in test [1] (setting [3]) and in test [2] (setting [4]) were 55.6 nM and 9.97 nM, respectively.

Take `COC1CCN(c2cccc3c2CCN(C(=O)c2cn(-c4cccc(Cl)c4F)nn2)C3C(=O)Nc2ccc(-c3ncc[nH]3)cc2)CC1` (centres unmarked) [Example 141, N-(4-(1H-Imidazol-2-yl)phenyl)-2-(1-(3-chloro-2-fluorophenyl)-1H-1,2,3-triazole-4-carbonyl)-5-(4-methoxypiperidin-1-yl)-1,2,3,4-tetrahydroisoquinoline-1-carboxamide, 2 TFA]: the Ki in test [1] (measured at 37° C. (*)) was found to be 161 nM; in test [2] (setting [4]) it was 5.95 nM.

With `COC1CCN(c2cccc3c2CCN(C(=O)c2cn(-c4cccc(Cl)c4F)nn2)C3C(=O)Nc2ccc(C(N)=O)cc2)CC1` (centres unmarked) [Example 335, N-(4-Carbamoylphenyl)-2-(1-(3-chloro-2-fluorophenyl)-1H-1,2,3-triazole-4-carbonyl)-5-(4-methoxypiperidin-1-yl)-1,2,3,4-tetrahydroisoquinoline-1-carboxamide, TFA salt], the Ki in test [1] (measured at 37° C. (*)) was 96.9 nM; in test [2] (setting [4]), below 5 nM.

With `O=C(O)c1ccc(NC(=O)C2c3cccc(N4CCC(N5CCCC5=O)CC4)c3CCN2C(=O)[C@H]2CC(c3cccc(Cl)c3F)=NO2)cc1` (single isomer, unassigned) [Example 208, TFA salt], the Ki in test [1] (setting [3]) was 447 nM; in test [2] (setting [4]), below 5 nM.

As to `CN1CCN(c2cccc3c2CCN(C(=O)C2CC(c4cccc(Cl)c4F)=NO2)C3C(=O)Nc2ccc(C(=O)O)cc2)CC1=O` (single isomer, unassigned) [Example 281, 4-(2-(3-(3-chloro-2-fluorophenyl)-4,5-dihydroisoxazole-5-carbonyl)-5-(4-methyl-3-oxopiperazin-1-yl)-1,2,3,4-tetrahydroisoquinoline-1-carboxamido)benzoic acid, TFA], the Ki in test [1] (measured at 25° C. (no asterisk), TFA) came out at 79 nM; in test [2] (read-out: Factor XIa Ki, measured at 25° C., TFA) it was 12.8 nM.

As for `CC1(O)CCN(c2cccc3c2CCN(C(=O)c2cn(-c4cccc(Cl)c4F)nn2)C3C(=O)Nc2ccc(C(=O)O)cc2)CC1` (centres unmarked) [Example 67, 4-(2-(1-(3-chloro-2-fluorophenyl)-1H-1,2,3-triazole-4-carbonyl)-5-(4-hydroxy-4-methylpiperidin-1-yl)-1,2,3,4-tetrahydroisoquinoline-1-carboxamido)benzoic acid, TFA salt], the Ki in test [1] (setting [3]) was 7.17 nM; in test [2] (setting [4]) it was below 5 nM.

For `COC1CCN(c2cccc3c2CCN(C(=O)c2cnn(-c4cccc(Cl)c4F)c2C)C3C(=O)Nc2ccc(C(=O)O)cc2)CC1` (racemic) [Example 259, 4-(2-(1-(3-chloro-2-fluorophenyl)-5-methyl-1H-pyrazole-4-carbonyl)-5-(4-methoxypiperidin-1-yl)-1,2,3,4-tetrahydroisoquinoline-1-carboxamido)benzoic acid, TFA salt], the Ki in test [1] (setting [3]) was 77.9 nM; in test [2], below 5 nM.

`CC(C)(O)C1CCN(c2cccc3c2CCN(C(=O)C2CC(c4cccc(Cl)c4F)=NO2)C3C(=O)Nc2ccc(C(=O)O)cc2)CC1` (centres unmarked) [Example 263, 4-(2-(3-(3-chloro-2-fluorophenyl)-4,5-dihydroisoxazole-5-carbonyl)-5-(4-(2-hydroxypropan-2-yl)piperidin-1-yl)-1,2,3,4-tetrahydroisoquinoline-1-carboxamido)benzoic acid, TFA salt]: the Ki turned out to be 68.1 nM in test [1] (setting [5]) and 11.5 nM in test [2] (setting [6]).
